Test results as given in paper PMC11564776, “Enzyme stabilisation due to incorporation of a fluorinated non-natural amino acid at the protein surface” (Scientific Reports, 2024).
Like-named read-outs stand apart in the source and are kept apart here.

Biological target: T1, WT transketolase (WT TK) (Escherichia coli, UniProt P27302)
T1 construct: gene tktA; full length, N-terminal His6 tag (plasmid pQR791), Ni-NTA purified, tag cleavage not mentioned; homodimer of 73-74 kDa monomers; WT expressed in E. coli XL10-Gold, variants in E. coli C321.dA.exp
T1 sequence (P27302 whole entry): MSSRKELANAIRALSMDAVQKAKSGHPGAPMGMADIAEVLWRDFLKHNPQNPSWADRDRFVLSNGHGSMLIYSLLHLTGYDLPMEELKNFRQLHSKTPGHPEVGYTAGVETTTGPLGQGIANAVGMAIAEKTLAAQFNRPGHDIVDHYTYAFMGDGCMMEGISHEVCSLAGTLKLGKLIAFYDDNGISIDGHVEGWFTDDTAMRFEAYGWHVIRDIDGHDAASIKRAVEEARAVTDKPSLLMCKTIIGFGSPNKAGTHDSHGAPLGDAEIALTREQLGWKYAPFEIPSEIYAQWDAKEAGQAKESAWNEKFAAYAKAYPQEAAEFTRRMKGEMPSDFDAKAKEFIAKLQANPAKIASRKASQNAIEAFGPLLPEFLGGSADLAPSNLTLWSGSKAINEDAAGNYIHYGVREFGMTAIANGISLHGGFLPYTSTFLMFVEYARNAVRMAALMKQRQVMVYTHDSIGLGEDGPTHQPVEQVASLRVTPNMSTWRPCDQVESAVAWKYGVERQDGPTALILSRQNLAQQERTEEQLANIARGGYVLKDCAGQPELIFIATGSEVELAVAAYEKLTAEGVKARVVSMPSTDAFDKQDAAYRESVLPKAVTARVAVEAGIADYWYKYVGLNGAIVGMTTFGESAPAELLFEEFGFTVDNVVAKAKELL
Assay: HPLC of erythrulose formation, initial velocities, Michaelis-Menten fit
Assay type: biochemical
Details: 50 mM HPA, 1.36 mM ThDP, 5.1 mM MgCl2, 33 mM Tris.HCl, pH 7.0, assay 21 °C, pre-incubated 15 min at 21 °C, standard error in parentheses, read-out: Km (GA)
Description: HPLC of erythrulose formation, initial velocities, Michaelis-Menten fit on WT transketolase (WT TK)

- Km (non-natural amino acid at 316, 84% incorporation with 9% K316F): 14 mM
- Km (non-natural amino acid at 316, almost 100% incorporation): 18 mM
Structure (SMILES): O=CCO [GA]
